Test results published in BigSolDB 2.1.

Nc1ccc(S(=O)(=O)Nc2ncccn2)cc1
solubility (mole fraction)
Settings | 278.15 K | 283.15 K | 288.15 K | 293.15 K | 298.15 K | 303.15 K | 308.15 K | 313.15 K | 318.15 K
in ethylene glycol | 0.00034 | 0.000379 | 0.000413 | 0.00047 | 0.000532 | 0.000575 | 0.000637 | 0.000694 | 0.000752
in water | 1.61e-06 | 2.01e-06 | 2.86e-06 | 3.8e-06 | 4.81e-06 | 6.49e-06 | 8.69e-06 | 1.14e-05 | 1.22e-05
